Laboratory results from ChEMBL document CHEMBL1151402, “Normaytancyprine, A Minor Antileukemic Ansa Macrolide From Putterlickia verrucosa” (1982).
In brackets after ≈: the same amount, converted by molar mass.

Assays:
KB = assay: Cytotoxicity against human KB cells; assay type: functional; settings: read-out: ED50 (the source's name)
P388 = assay: In vivo cytotoxicity against mouse P388 cells at 0.4 to 12.5 mg/kg; assay type: functional; settings: dose mg/kg 0.4-12.5

In the case of `COc1cc2cc(c1Cl)NC(=O)C[C@H](OC(=O)[C@H](C)N(C)C(=O)C1C(C)C1C)[C@]1(C)O[C@H]1[C@H](C)[C@@H]1C[C@@](O)(NC(=O)O1)[C@H](OC)/C=C/C=C(\C)C2` (some centres not stated) [NORMAYTANCYPRINE], the EC50 (KB) is reported as 0.001 ng/mL (≈ 0.00137 nM) and the T/C (P388) is reported as 145%.
